Data on eight molecules can be found in patent publication US20090042883A1, “ANTITUMOR AGENT” (KYOWA HAKKOKOGYO CO., priority 2005, published 2009).

What all share (assay type): cell-based
For data set [1], the system named is human mammary cancer BT-474 cells. Kind of data set: Growth inhibition test on human mammary cancer BT-474 cells (WST-1, % viability). Particulars: test compound 10 μmol/L, cells without test compound = 100%. The procedure:
(§1) Four thousand cells of human mammary cancer BT-474 were inoculated into each well of a 96-well microplate (manufactured by Nunc Corp.), and using Dulbecco's Modified Eagle's Medium (DMEM) (culture medium) containing 10% FCS, preculturing was performed in a 5% carbon dioxide incubator at 37° C. for 24 hours. A DMSO solution of each test compound prepared in a concentration of 10 mmol/L was diluted with the culture medium to a final concentration of 10 μmol/L, and the diluted solution was added to each well. The individual wells were further cultured in the 5% carbon dioxide incubator at 37° C. for 72 hours. After completion of the culturing, 10 μL of WST-1 labeled mixture (manufactured by Roche Diagnostic Corp.) was added to each well, and culturing was performed in the 5% carbon dioxide incubator at 37° C. for 2 hours. Using a microplate spectrophotometer (SpectraMax 340PC384; manufactured by Nihon Molecular Devices), the absorbance of each well was measured at 450 nm and 655 nm. The value obtained by subtracting the absorbance at 450 nm from the absorbance at 655 nm (absorbance difference) was calculated for each well. The value for cells not incorporated with a test compound was designated as 100%, and the value at a well not containing cells was designated as 0%. By comparing these values with the absorbance difference obtained at the well in which each test compound was added, the cell viability (% viability) after treatment with the test compound was calculated.
In general terms: Tetrazolium assays rely on reduction of a dye to a coloured formazan, in cell work by metabolically active cells.

For data set [2], the system named is human chronic myelocytic leukemia K562 cells. Kind of data set: Growth inhibition test on human chronic myelocytic leukemia K562 cells (WST-1, % viability). As to conditions: test compound 10 μmol/L, 72 hours, cells without test compound = 100%. The procedure: as §1, with “One” for “Four”, “chronic myelocytic leukemia K562” for “mammary cancer BT-474”, “RPMI1640 medium” for “Dulbecco's Modified Eagle's Medium (DMEM)”, “fetal calf serum (FCS),” for “FCS,”, “dimethyl sulfoxide (DMSO)” for “DMSO”, “WST-1 {4-[3-(4-Iodophenyl)-2-(4-nitrophenyl)-2H-5-tetrazolio]-1,3-benzene disulfonate}” for “WST-1”

Data set [3] deals with human acute myelocytic leukemia MV4; 11 cells. Nature of the data set: Growth inhibition test on human acute myelocytic leukemia MV4; 11 cells (WST-1, % viability). Particulars: test compound 10 μmol/L, cells without test compound = 100%. The procedure: as §1, with “Ten thousand” for “Four thousand”, “human acute myelocytic leukemia MV4; 11” for “human mammary cancer BT-474”, “using IMDM medium” for “using Dulbecco's Modified Eagle's Medium (DMEM)”, “for 1 hour.” for “for 2 hours.”

Data set [4] relates to human T-cell lymphoma Karpas-299 cells. Nature of the data set: Growth inhibition test on human T-cell lymphoma Karpas-299 cells (WST-1, % viability). As to conditions: test compound 10 μmol/L, 72 hours, cells without test compound = 100%. On the procedure: as §1, with “Five” for “Four”, “T-cell lymphoma Karpas-299” for “mammary cancer BT-474”, “RPMI medium” for “Dulbecco's Modified Eagle's Medium (DMEM)”, “5” for “24”

Molecules are shown by their SMILES.

On to `CCc1c(O)cc(O)c(C(=O)c2ccc(OCCN3CCOCC3)c(OC)c2)c1CC(=O)N(CCOC)CCOC.Cl` [Compound 139], for which, in data set [1], the “Viability of tumor cells (% viability), Human mammary cancer BT-474 cells” value stood at 14%. In addition, the “Viability of tumor cells (% viability), Human chronic myelocytic leukemia K562 cells” value in data set [2] amounted to 4%. For the same molecule, the “Viability of tumor cells (% viability), Human acute myelocytic leukemia MV4; 11 cells” value in data set [3] turned out to be 1%. Also, in data set [4], the “Viability of tumor cells (% viability), Human T-cell lymphoma Karpas-299 cells” value is 14%.

Regarding `CCc1c(O)cc(O)c(C(=O)c2ccc(O)c(OC)c2)c1CC(=O)N(CCOC)CCOC` [Compound 106], the “Viability of tumor cells (% viability), Human mammary cancer BT-474 cells” value in data set [1] is 12%. Besides, in data set [2], the “Viability of tumor cells (% viability), Human chronic myelocytic leukemia K562 cells” value turned out to be 4%. In addition, the “Viability of tumor cells (% viability), Human acute myelocytic leukemia MV4; 11 cells” value in data set [3] was determined as 0%. Further, in data set [4], the “Viability of tumor cells (% viability), Human T-cell lymphoma Karpas-299 cells” value was 13%.

As to `CCc1c(O)cc(O)c(C(=O)c2ccc(OC)c(OC)c2)c1CC(=O)N(CCO)CCOC` [Compound 56], the “Viability of tumor cells (% viability), Human mammary cancer BT-474 cells” value in data set [1] is 13%. Further, the “Viability of tumor cells (% viability), Human chronic myelocytic leukemia K562 cells” value in data set [2] stood at 5%. Also, the “Viability of tumor cells (% viability), Human acute myelocytic leukemia MV4; 11 cells” value in data set [3] is 0%. The “Viability of tumor cells (% viability), Human T-cell lymphoma Karpas-299 cells” value in data set [4] was found to be 14%.

In the case of `CCc1c(O)cc(O)c(C(=O)c2ccsc2)c1CC(=O)N(CCO)CCOC` [Compound 151], in data set [1], the “Viability of tumor cells (% viability), Human mammary cancer BT-474 cells” value stood at 13%. Further, the “Viability of tumor cells (% viability), Human chronic myelocytic leukemia K562 cells” value in data set [2] is 4%. Further, in data set [3], the “Viability of tumor cells (% viability), Human acute myelocytic leukemia MV4; 11 cells” value is on record as 0%. In addition, the “Viability of tumor cells (% viability), Human T-cell lymphoma Karpas-299 cells” value in data set [4] is given as 13%.

As to `CCc1c(O)cc(O)c(C(=O)c2ccc(OC(C)C)cc2)c1CC(=O)N(CCO)CCOC` [Compound 124], in data set [1], the “Viability of tumor cells (% viability), Human mammary cancer BT-474 cells” value turned out to be 13%. Also, the “Viability of tumor cells (% viability), Human chronic myelocytic leukemia K562 cells” value in data set [2] amounted to 4%. In addition, in data set [3], the “Viability of tumor cells (% viability), Human acute myelocytic leukemia MV4; 11 cells” value turned out to be 0%. The “Viability of tumor cells (% viability), Human T-cell lymphoma Karpas-299 cells” value in data set [4] is on record as 14%.

On to `CCc1c(O)cc(O)c(C(=O)c2ccc(OC)cc2)c1CC(=O)N(CCO)Cc1ccco1` [Compound 69], for which the “Viability of tumor cells (% viability), Human mammary cancer BT-474 cells” value in data set [1] came to 13%. Further, in data set [2], the “Viability of tumor cells (% viability), Human chronic myelocytic leukemia K562 cells” value was 4%. For the same molecule, the “Viability of tumor cells (% viability), Human acute myelocytic leukemia MV4; 11 cells” value in data set [3] was found to be 0%. Further, the “Viability of tumor cells (% viability), Human T-cell lymphoma Karpas-299 cells” value in data set [4] was determined as 14%.

Turning to `CCc1c(O)cc(O)c(C(=O)c2ccc(C(F)(F)F)cc2)c1CC(=O)N(CCO)CCOC` [Compound 144], the “Viability of tumor cells (% viability), Human mammary cancer BT-474 cells” value in data set [1] was 13%. In data set [2], the “Viability of tumor cells (% viability), Human chronic myelocytic leukemia K562 cells” value is given as 4%. The “Viability of tumor cells (% viability), Human acute myelocytic leukemia MV4; 11 cells” value in data set [3] worked out at 0%. For the same molecule, in data set [4], the “Viability of tumor cells (% viability), Human T-cell lymphoma Karpas-299 cells” value was found to be 15%.

On to `CCc1c(O)cc(O)c(C(=O)c2ccc(OC)cc2)c1CC(=O)N(CCO)CCO` [Compound 13], for which the “Viability of tumor cells (% viability), Human mammary cancer BT-474 cells” value in data set [1] came out at 12%. For the same molecule, in data set [2], the “Viability of tumor cells (% viability), Human chronic myelocytic leukemia K562 cells” value is recorded as 26%. For the same molecule, the “Viability of tumor cells (% viability), Human acute myelocytic leukemia MV4; 11 cells” value in data set [3] is given as 0%. The “Viability of tumor cells (% viability), Human T-cell lymphoma Karpas-299 cells” value in data set [4] amounted to 27%.
